Experimental findings from patent publication EP4682145A1, “BENZOHETEROCYCLIC COMPOUND, AND PREPARATION METHOD THEREFOR AND USE THEREOF” (Cascade Pharmaceuticals, Inc., priority 2023, dated 2024) are described below.

SMILES strings stand for the structures.

The test system of series [1] is normal C57BL6/J mice. The series is described as follows: Oral glucose tolerance test (OGTT) in normal C57BL6/J mice. Format: in vivo. The following applies: 1 mg/kg gavage, single dose; for AUC 0-120 minutes: blood glucose AUC. As to the method: Eighteen normal male C57BL6/J mice (8-9 weeks old) were selected and randomly divided into 3 groups based on body weight and blood glucose levels, with 6 mice in each group. On the day of the OGTT, fasting was initiated at 8:30 AM. At 11:30 AM, drug interventions were administered via gavage (vehicle control, compound 14, 1 mg/kg, and compound 169, 1 mg/kg). At 1:30 PM, glucose (2 g/kg) was administered via gavage, while the blank control group received the vehicle control orally (2% DMSO + 15% solutol + 83% DDW solution) at a dosing volume of 10 mL/kg. Blood glucose measurements during the OGTT were taken at the following time points: 0, 15, 30, 60, 90, and 120 minutes after glucose administration.
Blood glucose levels were measured at 0, 15, 30, 60, and 120 minutes after glucose administration. The area under the curve (AUC) for blood glucose over 120 minutes was calculated. [formula]
Note: BG0, BG15, BG30, BG60, BG90, and BG120 represent the blood glucose levels at 0, 15, 30, 60, 90, and 120 minutes after glucose administration, respectively.
Data were expressed as mean ± standard deviation. One-way ANOVA was employed for statistical analysis, with p < 0.05 considered statistically significant.

Series [2] has as its target T1, human FFAR1 (GPR40) (Homo sapiens, UniProt O14842).
T1 construct: Flag; expressed in transfected cells; host or cells: HEK293T
In words: NFAT-RE-based reporter gene activity assay (Dual-Glo luciferase) for GPR40 agonistic activity in co-transfected HEK293T cells. The format is cell-based. The following applies: 4-hour treatment. An outline of the steps:
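HEK293T cells co-transfected with human FFAR1, NFAT-RE firefly luciferase and TK-Renilla plasmids; 24 h later treated 4 h with 10 half-log compound dilutions from 1 µM. Firefly/Renilla ratio normalised to DMSO; EC50 from four-parameter fit.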

The subject of series [3] is normal male C57BL6/J mice. In words: In vivo hypoglycemia risk assay in fasted normal C57BL6/J mice. The following applies: for Blood Glucose / AUC 0-120 minutes: fasted 16 hours; for AUC 0-120 minutes: blood glucose AUC. As to the method:
The blank control group was orally administered with the vehicle control (2% DMO + 15% solutol + 83% DDW solution), with a dosing volume of 10 mL/kg. […] […] Data were expressed as mean ± standard deviation. One-way ANOVA was employed for statistical analysis, with p < 0.05 considered statistically significant.

T1 sequence (O14842 whole entry): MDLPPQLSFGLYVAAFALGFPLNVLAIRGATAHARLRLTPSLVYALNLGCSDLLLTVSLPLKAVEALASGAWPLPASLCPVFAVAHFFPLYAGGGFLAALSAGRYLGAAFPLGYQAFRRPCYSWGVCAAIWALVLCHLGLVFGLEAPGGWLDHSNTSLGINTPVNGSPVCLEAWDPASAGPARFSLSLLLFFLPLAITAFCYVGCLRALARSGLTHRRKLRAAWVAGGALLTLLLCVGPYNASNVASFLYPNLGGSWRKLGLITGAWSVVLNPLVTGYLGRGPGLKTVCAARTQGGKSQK

Take `COc1ccc(F)c(N2CCC(c3oc4cc([C@@H](CC(=O)O)C5CC5)ccc4c3-c3ccc(C(C)(C)C)cc3)CC2)c1` [Compound 169]: the “Blood Glucose” value in series [1] (0 minutes after glucose (2 g/kg)) is 7.88 ± 0.62 mmol/L; in series [1] (15 minutes after glucose (2 g/kg)) it was 12.78 ± 1.65 mmol/L; in series [1] (30 minutes after glucose (2 g/kg)) it was 9.28 ± 1.32 mmol/L; in series [1] (60 minutes after glucose (2 g/kg)), 9.28 ± 1.32 mmol/L; in series [1] (90 minutes after glucose (2 g/kg)), 7.67 ± 2.31 mmol/L; in series [1] (120 minutes after glucose (2 g/kg)), 7.13 ± 1.25 mmol/L. Further, the “Blood Glucose” value was determined as 4.3 ± 0.59 mmol/L in series [3] (3 mg/kg oral, 0 minutes after administration); 5.42 ± 0.56 mmol/L in series [3] (3 mg/kg oral, 30 minutes after administration); 4.73 ± 0.82 mmol/L in series [3] (3 mg/kg oral, 60 minutes after administration); 4.1 ± 0.51 mmol/L in series [3] (3 mg/kg oral, 120 minutes after administration); 4.65 ± 0.75 mmol/L in series [3] (10 mg/kg oral, 0 minutes after administration); 6.1 ± 1.01 mmol/L in series [3] (10 mg/kg oral, 30 minutes after administration). Besides, the “Blood Glucose” value turned out to be 4.92 ± 1.01 mmol/L in series [3] (10 mg/kg oral, 60 minutes after administration) and 4 ± 0.87 mmol/L in series [3] (10 mg/kg oral, 120 minutes after administration). Besides, the “AUC 0-120 minutes” value was 1075±66.01 in series [1] (1 mg/kg); “significantly reduced” in series [1] (listed as compound 169, 1 mg/kg); 563 ± 34.91 mmol·min in series [3] (3 mg/kg oral); 594 ± 49.00 mmol·min in series [3] (10 mg/kg oral). In addition, in series [2], the EC50 – broadly, the concentration needed to bring the measured effect to its halfway point – lay in the range of 100 to 500 nM. Moreover, the “Efficacy (%)” value in series [2] (class symbols) was “††† (Efficacy (%) > 150)”. Besides, in series [3] (judged from AUC0-120 min versus blank control, Glibenclamide 10 mg/kg, compound 169 at 3 mg/kg and 10 mg/kg), the risk of hypoglycemia result is recorded as “no risk of hypoglycemia”.
